Counter-ions that a name gives are not always drawn.
Each compound was assayed on stress-induced gastric ulcer (assay: Anti-stress ulcer test: inhibition of stress-induced gastric ulcer in rats). Details: Rattus norvegicus, po, 15 h, read-out: Inhibition Rate of Stress-Induced Ulcer (%).
Assay type: in vivo, rat (Douryu male rats)
Protocol: Anti-stress ulcer tests were conducted as described below. Douryu non-fasted male rats (Shizuoka Laboratory Animal Center, body weight: 220-250 g), five in each group, were immobilized within a stress cage made of wire net and immersed in a water bath at 22 ±1° C. to a depth of xiphoid for loading them with stresses. The rats were clubbed to death after 15 hours and their stomachs were extirpated. After injecting about 15 ml of an aqueous 1% formalin solution into each of the stomachs, they were immersed in an aqueous 1 % formalin solution for about 10 minutes and fixed. After fixation, the stomachs were incised along the greater curvature. The longer diameter of each ulcer generated in the glandular portion was measured under stereomicroscope (X10) and the sum of them was defined to be an ulcer coefficient (mm). Chemicals to be tested were suspended in an aqueous 1 % gum arabic solution and orally administrated at a dose of 2 ml/kg, 30 min before the stress loading. For the control group, an aqueous 1 % gum arabic solution only was administrated, and their ulcer coefficient was compared to that of the group administrated with the tested chemicals to calculate the suppression rate of the tested chemicals. The dosage was 50 mg/kg for each of the compounds. The test compounds in the table are identified in corresponding Examples hereinafter described.

Structure (SMILES) | inhibition in vivo at 200 mg/kg
CN=C(NC#N)NCCSCc1nc[nH]c1C [Cimethidine, reference compound] | 69.7%

Same assay, conditions: Rattus norvegicus; 50 mg/kg, oral, 30 min before stress loading; water immersion stress 22 ±1° C., 15 hours; vs control group; read-out: Inhibition Rate of Stress-Induced Ulcer (%)

Structure (SMILES) | inhibition in vivo at 50 mg/kg
CN1CCN(C/C(=N\O)c2ccc(Sc3ccccc3)cc2)CC1 [Example 1, (Z)-2-(4-methyl-piperazin-1-yl)-1-(4-phenylthio-phenyl)-ethanone oxime hydrochloride] | 76.9%
CN1CCN(C/C(=N\O)c2ccc(C3CCCCC3)cc2)CC1 [Example 3, (Z)-2-(4-methylpiperazin-1-yl)-1-(4-cyclohexyl-phenyl)-ethanone oxime] | 59.7%
CN1CCN(C/C(=N\O)c2ccc(Cc3ccccc3)cc2)CC1 [Example 5, (Z)-2-(4-methylpiperazin-1-yl)-1-(4-benzyl-phenyl)-ethanone oxime] | 100%
CC(=O)N(c1ccccc1)c1ccc(/C(CN2CCN(C)CC2)=N/O)cc1 [Example 6, (Z)-2-(4-methylpiperazin-1-yl)-1-(4-(N-acetyl-N-phenylamino)-phenyl)-ethanone oxime] | 85.7%
CN1CCN(C/C(=N\O)c2ccc(N(c3ccccc3)c3ccccc3)cc2)CC1 [Example 7, (Z)-2-(4-methylpiperazin-1-yl)-1-(4-diphenylamino-phenyl)-ethanone oxime] | 74.6%
CN1CCN(C/C(=N\O)c2ccc(CCc3ccccc3)cc2)CC1 [Example 8, (Z)-2-(4-methylpiperazin-1-yl)-1-(4-(2-phenylethyl)-phenyl)-ethanone oxime] | 65.7%
O/N=C(\CN1CCCCC1)c1ccc(CCc2ccccc2)cc1 [Example 11, (Z)-2-(piperidin-1-yl)-1-(4-(2-phenylethyl)-phenyl)-ethanone oxime] | 53%
CC(=O)N1c2ccccc2Sc2ccc(/C(CN3CCCCC3)=N/O)cc21 [Example 13] | 100%
CN1CCN(C/C(=N\O)c2ccc3c(c2)Sc2ccccc2S3)CC1 [Example 14] | 51.9%
CC1c2ccccc2CCc2ccc(/C(CN3CCN(C)CC3)=N/O)cc21 (centres unmarked) [Example 18, (Z)-2-(4-methylpiperazin-1-yl)-1-(10,11-dihydro-5H-5-methyldibenzo[a,b]cyclohepten-3-yl)-ethanone oxime] | 100%
CCC1c2ccccc2CCc2ccc(/C(CN3CCN(C)CC3)=N/O)cc21 (centres unmarked) [Example 19, (Z)-2-(4-methylpiperazin-1-yl)-1-(10,11-dihydro-5H-5-ethyldibenzo[a,b]cyclohepten-3-yl)-ethanone oxime] | 90.7%
CN1CCN(C/C(=N\O)c2ccc(S(=O)(=O)c3ccccc3)cc2)CC1 [Example 20, (Z)-2-(4-methylpiperazin-1-yl)-1-(4-phenylsulfonyl-phenyl)-ethanone oxime] | 80.3%
CN1CCN(C/C(=N\O)c2ccc3c(c2)Nc2ccccc2S3)CC1 [Example 22, (Z)-2-(4-methylpiperazin-1-yl)-1-(4-phenothiazin-2-yl)-ethanone oxime] | 50.6%
CN1CCN(C/C(=N\O)c2ccc(-n3ccnc3)cc2)CC1 [Example 23, (Z)-2-(4-methylpiperazin-1-yl)-1-(4-(imidazol-1-yl)phenyl)-ethanone oxime] | 50.5%
O/N=C(\CN1CCCCC1)c1ccc(-n2ccnc2)cc1 [Example 24, (Z)-2-(piperidin-1-yl)-1-(4-(imidazol-1-yl)-phenyl)-ethanone oxime] | 41.5%
CN1CCN(C/C(=N\O)c2ccc(NS(=O)(=O)c3ccccc3)cc2)CC1 [Example 31, (Z)-2-(4-methylpiperazin-1-yl)-1-(4-benzenesulfonyl-amino-phenyl)-ethanone oxime] | 48.4%
CN1CCN(C/C(=N\O)c2ccc(OCc3ccccc3)cc2)CC1 [Example 33, (Z)-2-(4-methyl-piperazin-1-yl)-1-(4-benzyloxy-phenyl)-ethanone oxime hydrochloride] | 41.4%
CCOc1cc(CCc2ccccc2)ccc1/C(CN1CCN(C)CC1)=N/O [Example 34, (Z)-2-(4-methylpiperazin-1-yl)-1-(2-ethoxy-4-(2-phenylethyl)-phenyl)-ethanone oxime hydrochloride] | 100%
CC(C)Oc1ccccc1CCc1ccc(/C(CN2CCN(C)CC2)=N/O)cc1 [Example 40, (Z)-2-(4-methylpiperazin-1-yl)-1-(4-(2-(2-isopropoxy-phenyl)-ethyl)-phenyl)-ethanone oxime] | 41.9%
